Measured values published in patent US5919771A, “Urea and thiourea derivatives of glycopeptides” (Eli Lilly and Company, priority 1998, dated 1999).

Assays:
Assay type in all cases: cell-based
[1] = test system: Staphylococcus aureus 489; assay: MIC, standard broth micro-dilution assay, SA 489
Method: (§1) The antibacterial efficacy of the present compounds is illustrated by Table II. The minimal inhibitory concentrations (MICs) were determined using a standard broth micro-dilution assay.

[2] = test system: Staphylococcus haemolyticus 415; assay: MIC, standard broth micro-dilution assay, SH 415
Method: as §1

[3] = test system: Staphylococcus haemolyticus 105; assay: MIC, standard broth micro-dilution assay, SH 105
Method: as §1

[4] = test system: Streptococcus pneumoniae P1; assay: MIC, standard broth micro-dilution assay, SPN P1
Method: as §1

[5] = test system: Staphylococcus aureus 447; assay: MIC, standard broth micro-dilution assay, SA 447
Method: as §1

[6] = test system: Enterococcus faecium and faecalis (RESISTANT); settings: geometric mean of 4-6 isolates
Method: as §1

[7] = test system: Enterococcus faecium and faecalis (SENSITIVE); settings: geometric mean of 4-6 isolates
Method: as §1

[8] = test system: Staphylococcus aureus 446; assay: MIC, standard broth micro-dilution assay, SA 446
Method: as §1

[9] = test system: Staphylococcus epidermidis 270; assay: MIC, standard broth micro-dilution assay, SE 270
Method: as §1

[10] = test system: Streptococcus pyogenes C203; assay: MIC, standard broth micro-dilution assay, SPY C203
Method: as §1

| SMILES | Minimal Inhibitory Concentration (MIC) SA 489 [1] | Minimal Inhibitory Concentration (MIC) SH 415 [2] | Minimal Inhibitory Concentration (MIC) SH 105 [3] | Minimal Inhibitory Concentration (MIC) SPN P1 [4] | Minimal Inhibitory Concentration (MIC) SA 447 [5] | Minimal Inhibitory Concentration (MIC) RESISTANT [6] | Minimal Inhibitory Concentration (MIC) SENSITIVE [7] | Minimal Inhibitory Concentration (MIC) SA 446 [8] | Minimal Inhibitory Concentration (MIC) SE 270 [9] | Minimal Inhibitory Concentration (MIC) SPY C203 [10] |
| --- | --- | --- | --- | --- | --- | --- | --- | --- | --- | --- |
| CC(C)CC(C(=O)NC1C(=O)NC(CC(N)=O)C(=O)NC2C(=O)NC3C(=O)NC(C(=O)NC(C(=O)O)c4cc(O)cc(O)c4-c4cc3ccc4O)C(OC3CC(C)(N)C(O)C(C)O3)c3ccc(c(Cl)c3)Oc3cc2cc(c3OC2OC(CO)C(O)C(O)C2OC2CC(C)(NCc3ccc(Oc4ccccc4)cc3)C(O)C(C)O2)Oc2ccc(cc2Cl)C1O)N(C)C(=S)Nc1ccc(N(C)C)cc1 (stereo not drawn) [Example 19, N^LEU -((p-(DIMETHYLAMINO)-PHENYL)THIOCARBAMOYL)-N^DISACC -(p-PHENOXYBENZYL)A82846B] | 2 | 4 | 2 | 2 | 2 | 19 | 2.6 | 2 | 2 | 0.25 |
| CC(C)CC(C(=O)NC1C(=O)NC(CC(N)=O)C(=O)NC2C(=O)NC3C(=O)NC(C(=O)NC(C(=O)O)c4cc(O)cc(O)c4-c4cc3ccc4O)C(OC3CC(C)(N)C(O)C(C)O3)c3ccc(c(Cl)c3)Oc3cc2cc(c3OC2OC(CO)C(O)C(O)C2OC2CC(C)(NCc3ccc(Oc4ccccc4)cc3)C(O)C(C)O2)Oc2ccc(cc2Cl)C1O)N(C)C(=S)Nc1ccc(OCc2ccccc2)cc1 (stereo not drawn) [Example 20, N^LEU -((p-(BENZYLOXY)PHENYL)-THIOCARBAMOYL)-N^DISACC -(p-PHENOXYBENZYL)A82846B] | 2 | 2 | 2 | 4 | 2 | 9.5 | 5.6 | 4 | 1 | ≤ 0.06 |
| CC(C)CC(C(=O)NC1C(=O)NC(CC(N)=O)C(=O)NC2C(=O)NC3C(=O)NC(C(=O)NC(C(=O)O)c4cc(O)cc(O)c4-c4cc3ccc4O)C(OC3CC(C)(N)C(O)C(C)O3)c3ccc(c(Cl)c3)Oc3cc2cc(c3OC2OC(CO)C(O)C(O)C2OC2CC(C)(NCc3ccc(-c4ccc(Cl)cc4)cc3)C(O)C(C)O2)Oc2ccc(cc2Cl)C1O)N(C)C(=S)Nc1ccccc1 (stereo not drawn) [Example 22, N^LEU -(PHENYLTHIOCARBAMOYL)-N^DISACC -(p-(p-CHLOROPHENYL)-BENZYL)A82846B] | 1 | 2 | 1 | ≤ .06 | 1 | 6.7 | 2.6 | 2 | 0.5 | ≤ .06 |
